According to patent US5378846A, “1,2,3,4-tetrahydropyrrolo-[1,2-a]-pyrazine derivatives” (Russian-American Institute For New Drug Development, priority 1993, dated 1995):
Entries after “also recorded” stand apart in the source; their conditions may differ.

Assays:
[1] = test system: locomotor activity in mice; experiment: Locomotor activity in mice (actometer); assay type: in vivo, outbred male mice; settings: for The number of movements for 3 min., horizontal activity / The number of movements for 3 min., vertical activity: i.p.
Procedure: (§1) Compounds according to the present invention were checked for their influence on gross behaviour. The experiments described herein (Examples 11, 12, 13, 14, and 15) were carried out using outbred male mice weighing approximately 18-24 g. Each substance was administered intraperitoneally 45 min. before the experiment. Locomotor activity was estimated individually for each animal for 3 min. using an actometer `Era-1` (Russia).

[2] = test system: duration of immobility in mice; experiment: Behavioural despair test (forced swimming); assay type: in vivo, outbred male mice; settings: for The duration of immobility: i.p.
Procedure: as §1
The influence of compounds on behavioral despair was studied according to the model described by Porsolt et al., Arch. int. pharmacodyn.et ther., 228, 327-[…] (1977), which is incorporated herein by reference. Mice, when forced to swim in a cylinder of water without the possibility of escape, rapidly adopt a characteristic immobile posture. […] The only movements they make are those necessary to keep their heads above water.

[3] = test system: aggressive behavior in mice; experiment: Antiaggressive activity (threshold of aggressive behavior, electrified floor); assay type: in vivo, outbred male mice
Procedure: as §1
The effect of Compound 1 on the threshold of the aggressive behavior was determined in the experiment on outbred mice (R. Tedesci et al., J. Pharmacol. Exp. Ther., 125, 28-34, (1959), which is incorporated herein by reference). The paired mice were placed on the electrified floor. The strength of the current, which provoked the fighting, was recorded.

BALB/c mice = experiment: Open field test, BALB/c mice; assay type: in vivo, male BALB/c mice; settings: for Central activity / Crosses of Squires / Emotionality (N. of defec.) / Total locomotor activity / Vert. stands: BALB/c, i.p.
Procedure: The effects of Compound 1 on different emotional stress reactions (ESR) in male mice of C57 B1/6 and BALB/c strains were studied. ESR indices were evaluated as changes in mice ambulations, defecations and motor activity in an "open field" test (Seredenin S. B., Vedernikov, A. A., Bull. Exp. Biol. Med., 100, No. 7, 38-40 (1979), which is incorporated herein by reference). Compound 1 was injected in different doses intraperitoneally 45 min. before test.

C57 B1/6 mice = experiment: Open field test, C57 B1/6 mice; assay type: in vivo, male C57 B1/6 mice; settings: for Central activity / Crosses of Squires / Emotionality (N. of defec.) / Total locomotor activity / Vert. stands: C57 B1/6, i.p.
Procedure: ESR indices were evaluated as changes in mice ambulations, defecations and motor activity in an "open field" test ([…]., Bull. Exp. Biol. […] Compound 1 was injected in different doses intraperitoneally 45 min. before test.

memory formation in rats = experiment: Passive avoidance test, step-through (memory formation, retention); assay type: in vivo, outbred male albino rats
Procedure: The influence of Compound 1 on memory formation was studied in a passive avoidance test, step-through paradigm (equipment of Laffaette Co., USA). The experiments were carried out on outbred male albino rats ([…]). Compound 1 and other drugs were administered intraperitoneally 45 min. before the passive avoidance training. The retention was tested 24 hours later learning (painful electroshock in the dark compartment) by the measurement of the time spent in the dark compartment for 3 min.

motor behavior in mice [4] = experiment: Rotating rod test (coordination of movements and myorelaxation); settings: for Disturbances according to rotating rod test, effect in %: mice
Procedure: (§2) The influence of Compound 1 on the motor behavior was studied according to a "rotating rod" test and a "horizontal wire" test in outbred male mice (18-22 g). A rotating rod (2 cm diameter and 5 rpm speed) was used. Acquisition was defined as the ability to remain on the rotating rod for 2 min. Each animal had two trials. According to the "horizontal wire" test a mouse was hung on the wire (0.3 cm. diameter, wire was fixed horizontally 40 cm above the floor) by the forepaws. The ability to pull the hind legs up to the wire for 2 min. was a criterion of test performance.

motor behavior in mice [5] = experiment: Horizontal wire test (coordination of movements and myorelaxation); settings: mice
Procedure: as §2

[6] = rat, 5.0 mg/kg i.p., retention 24 hours later, 3 min

O=C(O)CCC(=O)O.c1cc2n(c1)CCNC2 [Compound 1, 1,2,3,4-tetrahydropyrrolo-[1,2-a]-pyrazine hydrosuccinate]
Influence on spontaneous motor activity, in words ([1]; 0.1-0.3 mg/kg i.p.): neither stimulated nor depressed the spontaneous motor activity
The number of movements for 3 min., horizontal activity ([1]; 0.1 mg/kg): 650.8 ± 12.5
The number of movements for 3 min., vertical activity ([1]; 0.1 mg/kg): 24.7 ± 2.5
The number of movements for 3 min., horizontal activity ([1]; 0.3 mg/kg): 657.7 ± 15.5
The number of movements for 3 min., vertical activity ([1]; 0.3 mg/kg): 25.2 ± 4.1
Influence on duration of immobility, in words ([2]; forced swimming): did not show any activity; also recorded: does not change the duration of immobility
The duration of immobility ([2]; 5.0 mg/kg): 117.3 ± 6.9 s
The duration of immobility ([2]; 10.0 mg/kg): 110.8 ± 5.1 s
Effect on threshold of aggressive response, in words [3]: increase the threshold of aggressive response; also recorded: able to enhance the threshold of aggressive response
Aggression threshold ([3]; 0.5 mg/kg i.p.): 67.2 ± 1.7 V
Aggression threshold ([3]; 5.0 mg/kg i.p.): 90.8 ± 4.9 V
Open field behavior of BALB/c mice, in words (BALB/c mice; 2.5 and 5.0 mg/kg i.p.): produces activating (anxiolytic) effect in initially low active BALB/c mice; also recorded: caused ambulation increase elevating the central activity, and defecation decrease in BALB/c mice
Central activity (BALB/c mice; 0.1 mg/kg): 0.0
Crosses of Squires (BALB/c mice; 0.1 mg/kg): 21.2 ± 5.8
Emotionality (N. of defec.) (BALB/c mice; 0.1 mg/kg): 0.5 ± 0.17
Total locomotor activity (BALB/c mice; 0.1 mg/kg): 21.2 ± 5.8
Vert. stands (BALB/c mice; 0.1 mg/kg): 0.0
Central activity (BALB/c mice; 1.0 mg/kg): 0.4 ± 0.3
Crosses of Squires (BALB/c mice; 1.0 mg/kg): 25.6 ± 4.6
Emotionality (N. of defec.) (BALB/c mice; 1.0 mg/kg): 1.2 ± 0.13
Total locomotor activity (BALB/c mice; 1.0 mg/kg): 26.1 ± 4.6
Vert. stands (BALB/c mice; 1.0 mg/kg): 0.1 ± 0.1
Central activity (BALB/c mice; 5.0 mg/kg): 2.4 ± 0.9
Crosses of Squires (BALB/c mice; 5.0 mg/kg): 29.8 ± 5.2
Emotionality (N. of defec.) (BALB/c mice; 5.0 mg/kg): 0.45 ± 0.11
Total locomotor activity (BALB/c mice; 5.0 mg/kg): 33.0 ± 6.1
Vert. stands (BALB/c mice; 5.0 mg/kg): 0.9 ± 0.5
Open field behavior of C57 B1/6 mice, in words (C57 B1/6 mice; 5 mg/kg i.p.): caused the reduction of total ambulations inhibiting central and vertical activity. The number of defecations was not changed
Central activity (C57 B1/6 mice; 0.1 mg/kg): 24.2 ± 5.2
Crosses of Squires (C57 B1/6 mice; 0.1 mg/kg): 74.6 ± 7.6
Emotionality (N. of defec.) (C57 B1/6 mice; 0.1 mg/kg): 1.0 ± 0.53
Total locomotor activity (C57 B1/6 mice; 0.1 mg/kg): 114.6 ± 12.1
Vert. stands (C57 B1/6 mice; 0.1 mg/kg): 15.8 ± 2.5
Central activity (C57 B1/6 mice; 1.0 mg/kg): 29.9 ± 5.2
Crosses of Squires (C57 B1/6 mice; 1.0 mg/kg): 65.6 ± 5.5
Emotionality (N. of defec.) (C57 B1/6 mice; 1.0 mg/kg): 0.8 ± 0.39
Total locomotor activity (C57 B1/6 mice; 1.0 mg/kg): 110.6 ± 10.9
Vert. stands (C57 B1/6 mice; 1.0 mg/kg): 15.1 ± 2.0
Central activity (C57 B1/6 mice; 5.0 mg/kg): 11.1 ± 1.6
Crosses of Squires (C57 B1/6 mice; 5.0 mg/kg): 51.7 ± 5.3
Emotionality (N. of defec.) (C57 B1/6 mice; 5.0 mg/kg): 0.22 ± 0.22
Total locomotor activity (C57 B1/6 mice; 5.0 mg/kg): 71.7 ± 6.9
Vert. stands (C57 B1/6 mice; 5.0 mg/kg): 7.8 ± 1.5
Sedation in C57B1/6 mice, in words (C57 B1/6 mice; anxiolytic dose range, open field test): does not cause sedation in C57B1/6 mice; also recorded: anxiolytic effect in BALB/c mice does not coincide with sedative effect in C57B 1/6 mice
Influence on learning and memory formation, in words (memory formation in rats; passive avoidance): able to facilitate memory trace formation; also recorded: able to facilitate the learning ability: the time spent in the dark compartment was significantly decreased
The time spent in dark compartment (memory formation in rats; [6]): 15.9 ± 3.4 s
The time spent in light compartment (memory formation in rats; [6]): 164.1 ± 9.4 s
Disturbances according to rotating rod test, effect in % (motor behavior in mice [4]; dose 5.0): 0%
Disturbances according to rotating rod test, effect in % (motor behavior in mice [4]; dose 10.0): 0%
Disturbances according to rotating rod test, effect in % (motor behavior in mice [4]; dose 20.0): 0%
Disturbances according to rotating rod test, effect in % (motor behavior in mice [4]; dose 40.0): 0%
Disturbances according to rotating rod test, effect in % (motor behavior in mice [4]; dose 80.0): 0%
Disturbances according to rotating rod test, effect in % (motor behavior in mice [4]; dose 250.0): 0%
Motor behavior disturbance and myorelaxation, in words (motor behavior in mice [4]; rotating rod and horizontal wire tests, Compound 1 5-250 mg/kg): does not manifest amnestic and myorelaxant effects; also recorded: fails to evoke disturbances in the coordination of movements and myorelaxation
Disturbances according to horizontal wire test, effect in % (motor behavior in mice [5]; dose 5.0): 0%
Disturbances according to horizontal wire test, effect in % (motor behavior in mice [5]; dose 10.0): 0%
Disturbances according to horizontal wire test, effect in % (motor behavior in mice [5]; dose 20.0): 0%
Disturbances according to horizontal wire test, effect in % (motor behavior in mice [5]; dose 40.0): 0%
Disturbances according to horizontal wire test, effect in % (motor behavior in mice [5]; dose 80.0): 0%
Disturbances according to horizontal wire test, effect in % (motor behavior in mice [5]; dose 250.0): 0%
